Measurements published in patent publication US12365901B2, “Application of mechanical-force sensitive macrophage subset in pancreatic cancer diagnosis or prognosis evaluation” (priority 2023, dated 2025).

Experiments:
[1] = system: THP-1 cells; assay: Flow cytometry of CD11b and CD68 after THP-1 cells are differentiated into macrophages; assay type: cell-based, human; conditions: flow cytometry after PMA-induced differentiation
Experimental: (§1) 1) Transfection of THP-1 cells: the cells were inoculated into a 24-well plate at a density of 2.5×10^5/ well. A transfection reagent was prepared: A: 50 μL of low serum culture medium (Opti-MEM I Reduced Serum Medium, Cat. No. 31985070, Gibco) was added with 3 μL of transfection reagent (Lipofectamine™ RNAiMAX Transfection Reagent, Cat. No. 13778075, Invitrogen). B: 50 μL of low serum culture medium (Opti-MEM I Reduced Serum Medium, Cat. No. 31985070, Gibco) was added with 1 μL of siRNA (RIBO BIO). A and B were mixed and incubated at room temperature for 5 minutes, and 50 μL of the mixture was added with the THP-1 cells to culture overnight.
(§2) 2) A cell suspension was collected and centrifuged at 1000 rpm and room temperature for 5 minutes, a supernatant was removed, and PMA (50 ng/ml, Cat. No. p1585, Sigma) was added to induce for 24 hours.
4) The cells were collected, centrifuged, washed with PBS once, then added with 1 μL of Fixable Viability Stain 780 (Cat No. 565388, BD), mixed evenly, incubated on ice for 20 minutes, and washed with an FACS Buffer (2% BSA in PBS) twice. The solution was added with 2.5 μL of FC blocking antibody (Cat. No. 422302, Biolegend), blocked on ice for 20 minutes, then added with 2.5 μL of CD14-BV421 (Cat. No. 563743, BD) antibody and 1 μL of CD11b-PE (Cat. No. 101207, Biolegend) antibody, incubated on ice in the dark for 20 minutes, and then washed with an FACS Buffer twice. The solution was added with 100 μL of cell fixing solution (Cat. No. 00-8222-49, eBioscience), incubated at room temperature in the dark for 40 minutes, and then washed with a prepared membrane permeation solution (Cat. No. 00-8333-56, eBioscience) twice. The cells were resuspended to 100 μL of membrane permeation solution, added with 1.5 μL of CD68-AF647 (Cat. No. 333820, Biolegend), incubated on ice in the dark for 20 minutes, then washed with the membrane permeation solution twice, resuspended to 100 μL of FACS buffer, and detected on a computer.

[2] = system: THP-1 macrophages; assay: Elastic modulus of siRNA-transfected, PMA-induced THP-1 cells measured by nanoindenter; assay type: cell-based, human; conditions: compared with control group si-NC; PMA 50 ng/ml for 24 hours
Experimental: as §1, §2
3) The cell culture medium was replaced by PBS, an instrument was calibrated by using a confocal dish, and then an elastic modulus of the cells was measured.

Row | Substance | fluorescence intensity of CD11b of the THP-1 cells [1] | fluorescence intensity of CD68 of the THP-1 cells [1] | elastic modulus of the THP-1 macrophages [2]
1 | si-Ptk2b_1: siRNA targeting human Ptk2b gene: GGATCATCATGGAATTGTA (SEQID NO. 1) (listed as DNA, chemistry not given here) | significantly inhibit | significantly inhibit | significantly reduce
2 | si-Ptk2b_2: siRNA targeting human Ptk2b gene: GGACGAGGACTATTACAAA (SEQID NO. 2) (listed as DNA, chemistry not given here) | significantly inhibit | significantly inhibit | significantly reduce
3 | si-Ptk2b_3: siRNA targeting human Ptk2b gene: CACATGAAGTCCGATGAGA (SEQID NO. 3) (listed as DNA, chemistry not given here) | significantly inhibit | significantly inhibit | significantly reduce
